Key:
[1] = tested on: spike-and-wave discharges induced by gamma-butyrolactone (GBL); experiment: GBL induced absence seizure model, quantified EEG (spectral power, cortex); assay type: in vivo, beagle dogs
Description: The experiment was carried out on nine male non-naïve beagle dogs, weighing 9-15 kg. All animals were housed in a box or in a kennel under natural lighting with restricted access to food (approx. 300 g/animal/day) and unlimited access to water.
Dogs were implanted with an Emka Technologies telemetric device. Following an incision in the lateral neck region, the telemetric device was introduced into a pouch under the skin. The positive and negative biopotential electrodes were coiled into a loop and tunnelled subcutaneously to protrude into the opened scalp incision. The skin incisions then were closed.
Following a sagittal incision of the scalp, the top of the skull was prepared for implantation. The incision was performed between bregma and lambda sutures in order to place electrodes over the parietal cortex. Three small holes were drilled into the skull, on the right hemisphere. The tips of the electrodes were then pushed through the holes through the skull onto the dura mater. The electrodes were connected to small plugs, placed into a connector and the whole assembly was secured on skull with dental cement. The skin incisions then were closed using aseptic chirurgical thread.
Approximately 2 weeks later, the dogs were placed in a sling for the experiment.
For EEG recording, a telemetry receiver was located nearby the animal to record EEG.
All generated data was acquired and analysed using the EMKA Technologies software. The quality of the EEG signals was checked before launching EEG recording.
Before the experiment, EEG signals were recorded during a few minutes in baseline conditions to check the quality of the signals.
The baseline EEG recording was done for each dog, one day before the test session and lasted 40 minutes. Baseline and test sessions were done at the same time of the day for each dog.
EEG signals were recorded during 40 minutes to evaluate spike-and-wave discharges. The latency to observe spike-and-wave discharges was determined off-line on EEG signals.
The differential outputs between the 2 electrodes at each implantation site were digitized on-line at a sampling rate of 500 Hz/channel and the data stored in raw data files.
EEG was quantitatively analysed by spectral analysis using a Fast Fourier Transform algorithm. Spectra were calculated from epochs of 4.1-second duration. The mean total spectral power between 1.5 and 64 Hz and the power in 6 sub-frequency bands per brain structure recorded (1.5-4 (delta), 5-8 (theta), 8.5-12.5 (alpha), 13-35 (beta), 36-64 (gamma) and 3-6 Hz) was calculated on four 10-minute periods (from 0 to 10, 10 to 20, 20 to 30 and 30 to 40 minutes during baseline and test sessions).
Before being submitted to further analysis, all spectra containing recording artefacts found on visual inspection of the EEG traces were eliminated. Then the averages of 10-minute intervals of the verified individual spectra were saved into data files which then were transferred into Excel calculation sheets.

[2] = tested on: postnatal day 10 and 20 rats; conditions: cited from earlier work
focal seizures in humans = conditions: Phase II, placebo group similar; cited from earlier work
[3] = tested on: pilocarpine-induced seizures; conditions: rodent seizure models; cited from earlier work
[4] = Adverse effects observed in dogs of the GBL model studies
[5] = CBDV 100 mg/kg p.o. 4 hours before GBL, across all four time periods

Compound | power of high frequency bands (beta and gamma) [1, 5] | spectral power of lower frequency bands (delta, theta and alpha) [1, 5] | spectral power on delta frequency bands ([1]; CBDV 100 mg/kg p.o. 4 hours before GBL, time-interval 30-40 minutes, vs vehicle controls, p<0.05) | spectral power on 3-6 Hz frequency band ([1]; CBDV 100 mg/kg p.o., following GBL administration, vs vehicle control) | anticonvulsant action [2] | reductions in focal seizures (focal seizures in humans) | effect in pilocarpine-induced seizures [3] | power of high frequency bands (beta and gamma) ([1]; Diazepam 2 mg/kg p.o., across all four time periods) | adverse effects observed ([4]; diazepam 4 mg/kg, three dogs, during the test, after GBL administration) | adverse effects observed ([4]; diazepam 6 mg/kg, two dogs, GBL could not be administered)
C=C(C)[C@@H]1CCC(C)=C[C@H]1c1c(O)cc(CCC)cc1O [CBDV, cannabidivarin] | increased | decreased | significantly decreased | lowered | age and model-specific profile of anticonvulsant action | approximately 40% | not found to have any effect |  |  | 
CN1C(=O)CN=C(c2ccccc2)c2cc(Cl)ccc21 [Diazepam] |  |  |  |  |  |  |  | increased | Motor incoordination and psychotic effects (stereotypies, involuntary movements, barks) | the symptoms were stronger

From patent US20240226123A9, “USE OF CANNABIDIVARIN IN THE TREATMENT OF SEIZURES ASSOCIATED WITH CANINE EPILEPSY” (GW Research Limited, priority 2021, published 2024)
